Reference: patent publication US10752596B2, “Nitrogen-containing heteroaryl compound and pharmaceutical use thereof” (JAPAN TOBACCO INC., priority 2017, dated 2020)

Biological target: human GLUT9 (Homo sapiens (Human), UniProt Q9NRM0)
Assay: Evaluation of human GLUT9 inhibitory activity ([14C] uric acid uptake in human GLUT9 expressing HEK293T cells transduced with Uricase/Hyper)
Assay type: cell-based
Settings: final 300 μM uric acid, 6 min, human GLUT9 stably expressing HEK293T cells, read-out: humans GLUT9 inhibitory activity (IC50 value (μM))
Protocol: A method for measuring GLUT9 inhibitory activity using human GLUT9 expressing cells transduced with Uricase/Hyper is shown hereinafter. GLUT9 inhibitory activity ([…]) of the test compound was calculated based on the intracellular uptake amount of labeled uric acid ([^14C] uric acid) transported by GLUT9.
1. Preparation of Human GLUT9 Expression Plasmid
Human GLUT9S coding region (NM_001001290.1) was amplified by PCR method using PrimeSTAR MAX DNA Polymerase (Takara Bio). The obtained PCR product was subjected to agarose gel electrophoresis, and the desired size of PCR product was purified by QIAquick Gel Extraction Kit (QIAGEN). Next, pEBMulti-Bsd vector (Wako Pure Chemical Industries, Ltd.) was subjected to digestion using restriction enzymes SalI and EcoR V, and linked to the PCR product containing GLUT9S by In-Fusion reaction using In-Fusion HD Cloning Kit (Takara Bio). XL10-Gold Competent Cells (Agilent Technologies) were transformed in In-Fusion reaction solution, and the obtained transfectants were cultured with shaking overnight in LB medium to which Blasticidin S HCl (Thermo Fisher Scientific) was added. Human GLUT9 expression plasmid DNA was prepared from the collected transfectants using EndoFree Plasmid Kit (Takara Bio).
2. Establish of Human GLUT9 Stably Expressing Cell
HEK293T cells (American Type Culture Collection, DS Pharma Biomedical) were seeded in a 6 well plate at 1×10^6 cells/well. Next day, human GLUT9 expression plasmid was transfected by using Lipofectamine 3000 Reagent (Thermo Fisher Scientific) as follows. Lipofectamine 3000 Reagent (5 μL) was diluted with Opti-MEM (125 μL, Thermo Fisher Scientific). Separately, plasmid DNA (2.5 μg) was diluted with Opti-MEM (125 μL), and P3000 Reagent (5 μL) was added thereto. The obtained solution was mixed with the previously obtained diluted solution, and the mixture was left stand at room temperature for 5 min, and added to the cells. Next day, the transfected cells were diluted and reseeded in a 6 well plate at 4×10^5 cells/well, and drug selection was performed in the presence of 30 μg/mL of Blasticidin S HCl, and thereby, Blasticidin-resistant human GLUT9 stably expressing cell line was established. Mock cells were prepared by introducing pEBMulti-Bsd vector into HEK293T cells in a similar manner.
3. Preparation of Uricase/Hyper Expression Plasmid
Uricase/Hyper expression plasmid was prepared by linking the coding regions of Aspergillus Flavus-derived uricase gene and pHyPer-Cyto vector (Evrogen) HyPer gene to the pEBMulti-Hyg vector (Wako Pure Chemical Industries, Ltd.) and then introducing it. The preparation method was performed by reference to Gout and Nucleic Acid Metabolism 2013, 37(2), 93-101, and seven repeated linker sequence of glycine-glycine-glycine-serine was prepared herein.
4. Preparation of Human GLUT9-Uricase/Hyper Coexpressing Cell
Human GLUT9 stably expressing cells were seeded at 3.6×10^7 cells per 225 cm^2 flask. Next day, Uricase/Hyper expression plasmid was transfected by using Lipofectamine 3000 Reagent as follows. Lipofectamine 3000 Reagent (40 μL) was diluted with Opti-MEM (750 μL). Separately, plasmid DNA (20 μg) was diluted with Opti-MEM (750 μL), and P3000 Reagent (40 μL) was added thereto. The obtained solution was mixed with the previously obtained diluted solution, and the mixture was left stand at room temperature for 5 min, and added to the cells. Next day, transfected cells were collected to prepare human GLUT9-Uricase/Hyper coexpressing cells.
5. Evaluation of GLUT9 Inhibitory Activity
Uricase/Hyper transiently-transfected human GLUT9 stably expressing cells or mock cells (blank) were seeded in a 96 well plate (Corning) at 1.6×10^5 cells/well, and cultured overnight at 37° C., 5% CO2. D-MEM/high glucose (Wako Pure Chemical Industries, Ltd.) containing 10% Fetal Bovine Serum (Lifetechnology) and 100 units/ml penicillin/100 μg/ml streptomycin (GIBCO) was used as a medium.

Sequence of human GLUT9 (Q9NRM0 other isoform, or with tags, fused parts or gaps): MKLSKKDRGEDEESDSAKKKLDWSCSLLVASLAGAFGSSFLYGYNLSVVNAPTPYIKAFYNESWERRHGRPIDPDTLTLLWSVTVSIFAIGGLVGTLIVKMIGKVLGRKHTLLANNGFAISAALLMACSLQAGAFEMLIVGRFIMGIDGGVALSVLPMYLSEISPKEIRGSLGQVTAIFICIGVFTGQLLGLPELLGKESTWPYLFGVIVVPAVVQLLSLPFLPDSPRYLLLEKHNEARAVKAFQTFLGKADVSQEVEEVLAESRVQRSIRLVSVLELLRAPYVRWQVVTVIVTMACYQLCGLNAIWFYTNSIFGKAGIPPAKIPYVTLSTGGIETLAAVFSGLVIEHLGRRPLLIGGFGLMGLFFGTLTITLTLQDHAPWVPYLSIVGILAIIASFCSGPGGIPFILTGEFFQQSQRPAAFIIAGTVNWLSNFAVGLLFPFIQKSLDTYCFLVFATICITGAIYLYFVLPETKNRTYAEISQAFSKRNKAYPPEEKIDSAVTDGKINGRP

Compared with `COCc1cnc(-c2ccc(OC)cc2)c(-c2ccc(C(=O)O)cc2)c1` [Example 78], `COCCc1cnc(-c2ccc(OC)cc2)c(-c2ccc(C(=O)O)cc2)c1` [Example 102] is 2.8-fold lower in IC50: 2.21 µM for the first, 0.79 µM for the second. The second is the more potent here.

First: CCCCc1cnc(-c2ccc(CCC)cc2)c(-c2ccc(C(=O)O)cc2)n1 [Example 79]
Second: CCCCc1cnc(-c2ccc(COC)cc2)c(-c2ccc(C(=O)O)cc2)n1 [Example 86]
The IC50 of the first is 4.9-fold lower: 0.369 µM for the first, 1.82 µM for the second. The first is the more potent here.

First: CCCCc1cnc(-c2ccc(OC)cc2)c(-c2ccc(C(=O)O)c(C)c2)n1 [Example 83]
Second: CCCCc1cnc(-c2ccc(OC)cc2)c(-c2ccc(C(=O)O)c(O)c2)n1 [Example 91]
The IC50 of the first is 3.7-fold lower: 0.0662 µM for the first, 0.247 µM for the second. The first is the more potent here.

Going from `COCCCc1cnc(-c2ccc(OC)cc2)c(-c2ccc(C(=O)O)cc2)c1` [Example 84, 4-(2-(4-methoxyphenyl)-5-(3-methoxypropyl)pyridin-3-yl)benzoic Acid] to `COCCCCc1cnc(-c2ccc(OC)cc2)c(-c2ccc(C(=O)O)cc2)c1` [Example 123], the IC50 falls from 0.117 µM to 0.0589 µM (2-fold). The second is the more potent here.

Compared with `CCCCc1cnc(-c2ccc(CC#N)cc2)c(-c2ccc(C(=O)O)cc2)n1` [Example 87], `CCCCc1cnc(-c2ccc(C(C)C)cc2)c(-c2ccc(C(=O)O)cc2)n1` [Example 88] is 1.9-fold lower in IC50: 1.79 µM for the first, 0.928 µM for the second. The second is the more potent here.

Compared with `CCCCc1cnc(-c2ccc(C3COC3)cc2)c(-c2ccc(C(=O)O)cc2)n1` [Example 89], `CCCCc1cnc(-c2ccc(OC)cc2)c(-c2ccc(C(=O)O)c(Cl)c2)n1` [Example 92] is 9.9-fold lower in IC50: 1.8 µM for the first, 0.181 µM for the second. The second is the more potent here.

First: CCCCc1cnc(-c2ccc(OC)cc2)c(-c2ccc(CCC(=O)O)c(F)c2)n1 [Example 93]
Second: CCCCc1cnc(-c2ccc(OC)cc2)c(-c2ccc(C(=O)O)c(CC)c2)n1 [Example 111]
The IC50 of the first is 2.2-fold higher: 0.184 µM for the first, 0.0826 µM for the second.

`COCCCc1cnc(-c2cc(F)c(OC)c(F)c2)c(-c2ccc(CCC(=O)O)cc2)c1` [Example 95] and `COCCCCc1cnc(-c2cc(F)c(OC)c(F)c2)c(-c2ccc(CCC(=O)O)cc2)c1` [Example 132] are within 1.5-fold of each other in IC50: 0.0576 µM for the first, 0.0519 µM for the second.

`COc1ccc(-c2ncc(CC3CC3)cc2-c2ccc(C(=O)O)cc2)cc1` [Example 96] and `CCCOCc1cnc(-c2ccc(OC)cc2)c(-c2ccc(C(=O)O)cc2)c1` [Example 118, 4-(2-(4-methoxyphenyl)-5-(propoxymethyl)pyridin-3-yl)benzoic Acid] are within 1.5-fold of each other in IC50: 0.0887 µM for the first, 0.108 µM for the second.

`COCCCc1cnc(-c2cc(F)c(OC)c(F)c2)c(-c2ccc(CCC(=O)O)cc2)n1` [Example 97] and `COCCCCc1cnc(-c2cc(F)c(OC)c(F)c2)c(-c2ccc(CCC(=O)O)cc2)n1` [Example 148] are within 1.5-fold of each other in IC50: 0.0795 µM for the first, 0.0807 µM for the second.

`COc1c(F)cc(-c2ncc(CC(C)C)nc2-c2ccc(C(=O)O)cc2)cc1F` [Example 98] and `COc1c(F)cc(-c2ncc(CC(C)C)nc2-c2ccc(C(=O)O)c(C)c2)cc1F` [Example 149] are within 1.5-fold of each other in IC50: 0.0605 µM for the first, 0.0574 µM for the second.

`COc1c(F)cc(-c2ncc(CC(C)C)cc2-c2ccc(C(=O)O)cc2)cc1F` [Example 99] and `COCCCc1cnc(-c2cc(F)c(OC)c(F)c2)c(-c2ccc(C(=O)O)cc2)c1` [Example 107] are within 1.5-fold of each other in IC50: 0.0514 µM for the first, 0.0627 µM for the second.

Going from `CCCCCCc1cnc(-c2ccc(OC)cc2)c(-c2ccc(C(=O)O)cc2)c1` [Example 100] to `COCCOCCCc1cnc(-c2ccc(OC)cc2)c(-c2ccc(C(=O)O)cc2)c1` [Example 119], the IC50 rises from 0.082 µM to 0.501 µM (6.1-fold).

Going from `COc1ccc(-c2ncc(Cc3ccccc3)cc2-c2ccc(C(=O)O)cc2)cc1` [Example 101] to `COc1ccc(-c2ncc(CCc3ccccc3)cc2-c2ccc(C(=O)O)cc2)cc1` [Example 105], the IC50 rises from 0.164 µM to 0.453 µM (2.8-fold). The first is the more potent here.

`COCCCc1cnc(-c2ccc(OC)c(F)c2)c(-c2ccc(C(=O)O)cc2)c1` [Example 106] and `COCCCc1cnc(-c2ccc(OC)c(F)c2)c(-c2ccc(CCC(=O)O)cc2)c1` [Example 108] are within 1.5-fold of each other in IC50: 0.101 µM for the first, 0.0712 µM for the second.

`COCCCc1cnc(-c2cc(F)c(OC)c(F)c2)c(-c2ccc(C(=O)O)c(C)c2)n1` [Example 109] and `COCCCCc1cnc(-c2cc(F)c(OC)c(F)c2)c(-c2ccc(C(=O)O)c(C)c2)n1` [Example 135] are within 1.5-fold of each other in IC50: 0.0799 µM for the first, 0.0613 µM for the second.

Compared with `CCCCc1cnc(-c2ccc(OC)cc2)c(-c2cc(C)c(C(=O)O)c(C)c2)n1` [Example 110], `CCCCc1cnc(-c2ccc(OC)cc2)c(-c2ccc(C(=O)O)c(C)c2)c1` [Example 114] is 4.4-fold lower in IC50: 0.265 µM for the first, 0.0604 µM for the second.

`COCCCc1cnc(-c2cc(F)c(OC)c(F)c2)c(-c2ccc(C(=O)O)c(F)c2)n1` [Example 112] and `COCCCc1cnc(-c2cc(F)c(OC)c(F)c2)c(-c2ccc(C(=O)O)c(Cl)c2)n1` [Example 121] are within 1.5-fold of each other in IC50: 0.561 µM for the first, 0.501 µM for the second.

Going from `COCCCc1cnc(-c2ccc(OC)c(F)c2)c(-c2ccc(C(=O)O)c(F)c2)n1` [Example 113] to `COCCCCc1cnc(-c2cc(F)c(OC)c(F)c2)c(-c2ccc(C(=O)O)c(Cl)c2)n1` [Example 136], the IC50 falls from 1 µM to 0.25 µM (4-fold).

`COCCCc1cnc(-c2cc(F)c(OC)c(F)c2)c(-c2ccc(C(=O)O)c(C)c2)c1` [Example 115] and `COCCCCc1cnc(-c2cc(F)c(OC)c(F)c2)c(-c2ccc(C(=O)O)c(C)c2)c1` [Example 130] are within 1.5-fold of each other in IC50: 0.0497 µM for the first, 0.0521 µM for the second.

`COCCCc1cnc(-c2ccc(OC)cc2)c(-c2ccc(C(=O)O)c(C)c2)c1` [Example 116, 4-(2-(4-methoxyphenyl)-5-(3-methoxypropyl)pyridin-3-yl)-2-methylbenzoic Acid] and `COCCCCc1cnc(-c2ccc(OC)cc2)c(-c2ccc(C(=O)O)c(C)c2)c1` [Example 126] are within 1.5-fold of each other in IC50: 0.0684 µM for the first, 0.0497 µM for the second.

`CCOCCc1cnc(-c2cc(F)c(OC)c(F)c2)c(-c2ccc(C(=O)O)cc2)n1` [Example 117] and `CCOCCc1cnc(-c2cc(F)c(OC)c(F)c2)c(-c2ccc(CCC(=O)O)cc2)n1` [Example 134] are within 1.5-fold of each other in IC50: 0.543 µM for the first, 0.525 µM for the second.

Going from `COCCCc1cnc(-c2ccc(OC)cc2)c(-c2ccc(C(=O)O)c(Cl)c2)c1` [Example 120] to `COCCCCc1cnc(-c2ccc(OC)cc2)c(-c2ccc(C(=O)O)c(Cl)c2)c1` [Example 125], the IC50 falls from 0.539 µM to 0.229 µM (2.4-fold). The second is the more potent here.

Going from `COCCCCc1cnc(-c2ccc(OC)cc2)c(-c2ccc(CCC(=O)O)cc2)c1` [Example 127] to `CCOCCc1cnc(-c2ccc(OC)cc2)c(-c2ccc(CCC(=O)O)cc2)c1` [Example 139], the IC50 rises from 0.0688 µM to 0.167 µM (2.4-fold).

`COCCCCc1cnc(-c2cc(F)c(OC)c(F)c2)c(-c2ccc(C(=O)O)cc2)c1` [Example 129] and `CCOCCc1cnc(-c2cc(F)c(OC)c(F)c2)c(-c2ccc(C(=O)O)cc2)c1` [Example 140] are within 1.5-fold of each other in IC50: 0.0569 µM for the first, 0.0713 µM for the second.

`COCCCCc1cnc(-c2cc(F)c(OC)c(F)c2)c(-c2ccc(C(=O)O)c(Cl)c2)c1` [Example 131] and `CCOCCc1cnc(-c2cc(F)c(OC)c(F)c2)c(-c2ccc(C(=O)O)c(Cl)c2)c1` [Example 142] are within 1.5-fold of each other in IC50: 0.155 µM for the first, 0.226 µM for the second.

Going from `CCOCCc1cnc(-c2cc(F)c(OC)c(F)c2)c(-c2ccc(C(=O)O)c(C)c2)n1` [Example 133] to `CCOCCc1cnc(-c2cc(F)c(OC)c(F)c2)c(-c2ccc(C(=O)O)c(C)c2)c1` [Example 141], the IC50 falls from 0.313 µM to 0.0639 µM (4.9-fold). The second is the more potent here.

First: CCOCCc1cnc(-c2ccc(OC)cc2)c(-c2ccc(C(=O)O)c(C)c2)c1 [Example 137]
Second: CCOCCc1cnc(-c2ccc(OC)cc2)c(-c2ccc(C(=O)O)c(Cl)c2)c1 [Example 138]
The IC50 of the first is 5.4-fold lower: 0.0917 µM for the first, 0.499 µM for the second.

`CCCOCc1cnc(-c2ccc(OC)cc2)c(-c2ccc(C(=O)O)c(C)c2)c1` [Example 143] and `CCCOCc1cnc(-c2cc(F)c(OC)c(F)c2)c(-c2ccc(C(=O)O)c(C)c2)c1` [Example 147] are within 1.5-fold of each other in IC50: 0.125 µM for the first, 0.0868 µM for the second.

In the case of `CCCOCc1cnc(-c2cc(F)c(OC)c(F)c2)c(-c2ccc(CCC(=O)O)cc2)c1` [Example 146], the IC50 is reported as 0.139 µM.
